Assay results: article PMC12079163 (Drug Development Research, 2025)

Experiments:
[1] = Solubility under the assay conditions; format: physicochemical; conditions: HDAC, BCL‐2 and cell assays; data not reliable, not reported
[2] = target: T1, HDAC6 (Homo sapiens, UniProt Q9UBN7); conditions: ref Zhou et al. [2019]; cited from earlier work
T1 sequence (Q9UBN7 1-1215): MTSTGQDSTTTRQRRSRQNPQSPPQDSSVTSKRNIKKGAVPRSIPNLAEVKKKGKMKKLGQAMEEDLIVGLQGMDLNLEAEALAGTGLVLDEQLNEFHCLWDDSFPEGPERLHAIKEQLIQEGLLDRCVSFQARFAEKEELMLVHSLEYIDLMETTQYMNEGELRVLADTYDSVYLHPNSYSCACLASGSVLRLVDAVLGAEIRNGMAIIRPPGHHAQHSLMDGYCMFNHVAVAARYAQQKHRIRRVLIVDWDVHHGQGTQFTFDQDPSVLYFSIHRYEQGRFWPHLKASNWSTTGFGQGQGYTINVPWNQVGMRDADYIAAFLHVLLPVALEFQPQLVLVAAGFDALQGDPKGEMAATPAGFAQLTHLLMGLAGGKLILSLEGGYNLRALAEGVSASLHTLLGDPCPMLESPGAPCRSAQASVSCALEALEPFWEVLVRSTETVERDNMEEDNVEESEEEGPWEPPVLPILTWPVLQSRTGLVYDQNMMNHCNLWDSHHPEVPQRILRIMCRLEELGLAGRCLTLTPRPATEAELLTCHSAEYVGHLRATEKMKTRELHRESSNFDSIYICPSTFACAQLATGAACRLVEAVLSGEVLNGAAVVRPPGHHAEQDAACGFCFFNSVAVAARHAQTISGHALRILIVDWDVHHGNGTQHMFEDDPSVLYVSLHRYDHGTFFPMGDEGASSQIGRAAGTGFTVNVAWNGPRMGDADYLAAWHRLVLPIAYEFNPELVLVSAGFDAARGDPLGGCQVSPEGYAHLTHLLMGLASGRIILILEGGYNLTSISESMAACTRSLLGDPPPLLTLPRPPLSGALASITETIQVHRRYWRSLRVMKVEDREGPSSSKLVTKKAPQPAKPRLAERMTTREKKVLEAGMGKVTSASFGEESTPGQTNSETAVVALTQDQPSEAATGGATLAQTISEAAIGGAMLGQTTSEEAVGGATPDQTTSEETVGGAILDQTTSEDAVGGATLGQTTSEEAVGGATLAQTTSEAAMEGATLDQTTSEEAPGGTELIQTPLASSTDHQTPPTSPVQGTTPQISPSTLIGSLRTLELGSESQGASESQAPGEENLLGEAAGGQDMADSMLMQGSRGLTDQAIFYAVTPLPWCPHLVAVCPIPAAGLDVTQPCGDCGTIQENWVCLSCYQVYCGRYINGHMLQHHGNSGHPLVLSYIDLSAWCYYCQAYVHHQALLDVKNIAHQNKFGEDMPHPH

Row | solubility under the assay conditions [1] | SMILES | selectivity for HDAC6 over HDAC1 [2]
1 | Limited solubility | CC1(C)CCC(CN2CCN(c3ccc(C(=O)NS(=O)(=O)c4ccc(NCC5CCN(c6c(F)cc(C(=O)NO)cc6F)CC5)c([N+](=O)[O-])c4)c(Oc4cnc5[nH]ccc5c4)c3)CC2)=C(c2ccc(Cl)cc2)C1 [AMC‐4‐101, 4‐(4‐(((4‐(N‐(2‐((1H‐pyrrolo[2,3‐b]pyridin‐5‐yl)oxy)‐4‐(4‐((4′‐chloro‐5,5‐dimethyl‐3,4,5,6‐tetrahydro‐[1,1′‐biphenyl]‐2‐yl)methyl)piperazin‐1‐yl)benzoyl)sulfamoyl)‐2‐nitrophenyl)amino)methyl)piperidin‐1‐yl)‐3,5‐difluoro‐N‐hydroxybenzamide] | –
2 | – | O=C(CCCCCCC(=O)Nc1ccccc1)NO [SAHA] | about threefold
